# In patent publication US6627732B1, “Glutathione derivatives and their dosage forms” (Teijin Limited, priority 1998, dated 2003):
# Experiments:
# [1] = Plasma concentration after intravenous administration to mice (Example 24); format: in vivo, mouse; details: iv tail vein 50 mg/kg, HPCD solution, 5 min, individual mice, quantitation limit about 1 μg/ml
# Description: The blood levels of the glutathione derivatives of Example 4 and Comparative Example 1 were compared in mice that are a species having a high esterase activity in the blood.
# (1) Male 8-week old BDF1 mice were purchased from Nippon SLC and used for the experiment. Until 9-week old when they were subjected to the experiment, the animals were kept at a temperature of 24±2° C. and a humidity of 55±5% under the condition under which the animals had free access to the animal feed (MF, Oriental Yeast Co., Ltd.) and drinking water (well water treated with 0.4±0.2 ppm hypochlorous acid).
# After a fixed time, about 1 ml of blood was drawn from the heart of the animal under ethereal anesthesia (after drawing blood once, each mouse is sacrificed). The N number for each sample group at each time point was 2. After drawing, the blood was immediately cooled on ice and was centrifuged in the presence of sodium citrate to collect plasma. The plasma thus obtained was deproteinized with acetonitrile and then was analyzed by a C18 reverse phase high performance liquid chromatography using an aqueous solution of trifluoroacetic acid/acetonitrile system as the mobile phase to determine the concentration of glutathione derivative for each plasma.
# [2] = test system: rat models of suppressed hematopoietic function by 5-FU administration; experiment: Ratio of segmented neutrophils in rat models of suppressed hematopoietic function by 5-FU (Example 27); format: in vivo; details: 5-FU rats; 30 mg/kg-body weight/day with fat emulsion
# Description: (1) The animals used are the same as in Example 26. The keeping condition was a temperature of 23±2° C. and a humidity of 55±15%.
# (2) The creation of the 5-FU administration model, the administration of test substances, and the blood collection schedule were carried out in a similar manner to Example 26. Hematological tests were carried out using the Toa multi-channel automatic cell counter K-4500 or Toa Sysmex CC-180A automatic cell counter, differential counts of white blood cells were carried out by May-Giemsa stain followed by microscopic examination, reticulocytes were counted by the Brecher method.
# (3) Using the same schedule as in Example 26, the negative control group that only received the fat emulsion after 5-FU administration, the group that received the glutathione derivative of Example 4 at 30 mg/kg-body weight/day as a test substance together with the fat emulsion, the group that similarly received the glutathione derivative of Example 1 at 10 or 30 mg/kg-body weight/day, and the group that received the glutathione derivative of Example 7 at 30 or 60 mg/kg-body weight/day were studied.
# TNFα = experiment: Plasma level of TNFα in normal healthy rats (ELISA); format: in vivo, rat; details: fat emulsion 20 mg/kg-body weight/day, days 3, 5 and 7
# Excerpt: , plasma obtained form the EDTA-2K-treated blood on days 3, 5, and 7 of the experiment was used to determine plasma levels of interleukin 1β (hereinafter referred to as IL-1β) and tumor necrosis factor (hereinafter referred to as TNFα). For the determination, the rat IL-1β-ELISA system (manufactured by Amersham Pharmacia Biotek Co., Ltd.), the rat TNFα-ELISA system (manufactured by Amersham Pharmacia Biotek Co., Ltd.), and the BioRad microplate reader (MODEL550, Nippon BioRad laboratories, Co., Ltd.).
Plasma concentration [1] [µg/mL],Structure (SMILES),Recovery of segmented neutrophil counts relative to the negative control [2],Plasma level of TNFα relative to the negative control group (TNFα)
≤ 1,"CCOC(=O)[C@@H](N)CCC(=O)N[C@@H](CSCc1ccccc1)C(=O)N[C@@H](C(=O)OCC)c1ccccc1.Cl [Comparative Example 1, Glu(Cys(Bzl)-D-Phg-O(Et))-O(Et)hydrochloride, reference compound]",–,–
–,"CCCCCCCCCCCCCCCCOC(=O)[C@@H](N)CCC(=O)N[C@@H](CSCc1ccccc1)C(=O)N[C@@H](C(=O)OCC)c1ccccc1.Cl [Example 4, Glu(Cys(Bzl)-D-Phg-OEt)-O(Hexadecyl)hydrochloride]",tendency of promoting the recovery of segmented neutrophil counts,No increases
